US12324845B2, “Ligands for imaging cardiac innervation” (Lantheus Medical Imaging, Inc., priority 2006, dated 2025)
Where a name gives a salt, the structure may show the parent alone.

Biological target: T1, human norepinephrine transporter (Homo sapiens, UniProt P23975)
T1 construct: purchased Perkin-Elmer; host or cells: MDCK cells (membrane preparation)
Assay: Norepinephrine Transporter Binding Assay ([3H]desipramine displacement, MDCK cell membranes)
Details: MDCK cell membrane preparation expressing human NET; [3H]desipramine 2 nM; 2 h on ice; triplicate
Description: Unless otherwise stated, all reactions were conducted under an inert atmosphere of dry nitrogen. Indicated temperatures refer to those of the reaction bath, while ambient laboratory temperature is noted as 22° C. Anhydrous dimethylformamide (DMF), dimethylsulfoxide (DMSO), acetonitrile (MCCN), pyridine, triethylamine (TEA), and diisopropylethylamine (DIEA) were obtained from Aldrich in SureSeal® bottles. Absolute ethanol was obtained from Quantum Chemical Corp. Merck silica gel, grade 9385, 230-400 mesh, 60 Å was used for flash chromatography. Ethyl acetate (EtOAc), chloroform (CHCl3), methanol (MeOH), HPLC grade acetonitrile (MeCN), dichloromethane (DCM), ethyl ether, acetone, sodium hydroxide (NaOH), and hydrochloric acid (HCl) were obtained from Baker. 1-Trityl-1H-imidazole-2-amine was prepared according to a published procedure (U.S. Pat. No. 6,130,231, incorporated by reference in its entirety). 1-Bromo-2-fluoroethane was purchased from Alfa Aesar. 3-Methoxy-4-fluorobenzonitrile was purchased from TCI. MDCK cell membranes expressing human norepinephrine transporter, and [^3H]desipramine were purchased from Perkin-Elmer. [^18F]NaF was obtained from PETNET Pharmaceutical Services (Cummings Park, Woburn, MA) on a MP1 anion exchange resin (BioRad) cartridge. Other reagents were obtained from Lancaster Synthesis, Inc., Sigma-Aldrich Chemical Co, or Fluka Chemical Corp.
Inhibitors to be tested were dissolved in incubation buffer (50 mM Tris-HCl, 10% sucrose, pH 7.4) at appropriate dilutions. The inhibitor solutions were added to the wells of a microtiter plate (40 μL/well) in triplicate. Each well of test agent (and appropriate control wells) was treated with a mixture of MDCK cell membrane preparation (22.4 μg of membrane) expressing human norepinephrine transporter (Bmax=3.7 pmol norepinephrine transporter/mg protein), and [^3H]desipramine (2 nM, 64.8 Ci/mmol) in a total volume of 0.2 mL. The resulting mixtures were incubated for 2 h on ice. A 96 well GF/C filter plate was presoaked with coating buffer (0.5% polyvinylpyrrolidine and 0.1% Tween 20) for 2 h at room temperature. The presoaked filter plate was washed with incubation buffer (6×0.2 mL). The NET reactions were transferred to the coated filter plate and filtered. The filter plate was washed (6×0.2 mL) with ice cold wash buffer (50 mM Tris-HCl, 0.9% NaCl, pH 7.4). The plate was dried overnight, incubated briefly with 25 μL scintillant, and read on a Micro Beta plate reader.

T1 sequence (P23975 whole entry): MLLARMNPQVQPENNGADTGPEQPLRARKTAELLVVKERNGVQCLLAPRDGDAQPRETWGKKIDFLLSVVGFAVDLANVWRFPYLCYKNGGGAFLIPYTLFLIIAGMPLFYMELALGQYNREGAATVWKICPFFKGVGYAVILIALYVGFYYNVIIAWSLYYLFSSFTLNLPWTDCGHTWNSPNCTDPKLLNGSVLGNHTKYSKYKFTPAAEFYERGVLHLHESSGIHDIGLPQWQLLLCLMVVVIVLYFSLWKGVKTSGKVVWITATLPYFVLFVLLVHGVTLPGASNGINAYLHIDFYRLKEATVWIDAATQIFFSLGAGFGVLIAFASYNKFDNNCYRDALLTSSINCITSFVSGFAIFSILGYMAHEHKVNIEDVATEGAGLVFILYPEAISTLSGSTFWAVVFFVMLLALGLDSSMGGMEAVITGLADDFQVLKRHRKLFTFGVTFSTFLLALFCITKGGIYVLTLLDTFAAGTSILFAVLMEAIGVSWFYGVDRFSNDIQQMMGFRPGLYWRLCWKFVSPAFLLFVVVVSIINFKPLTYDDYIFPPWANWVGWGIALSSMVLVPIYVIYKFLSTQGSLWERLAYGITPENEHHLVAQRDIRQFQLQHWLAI

In order of rising “NET Affinity” value:
1. Cl.N=C(N)NCCc1ccc(OCCF)cc1 [Example 3, 1-(4-(2-Fluoroethoxy)phenethyl)guanidinium Chloride]  1.45 µM
2. N=C(N)NCCc1ccc(OCCF)c(Cl)c1 [Example 10, 3-Chloro-4-(2-fluoroethoxy)phenethylguanidinium Trifluoroacetate]  1.80 µM
3. Cl.N=C(N)N/C=C/c1ccc(OCCF)cc1 [Example 5, (E)-1-(4-(2-Fluoroethoxy)styryl)guanidinium Chloride]  4.10 µM
4. N=C(N)NCc1cccc(OCCF)c1 [Example 9, 3-(2-Fluoroethoxy)benzylguanidinium Trifluoroacetate]  4.36 µM
5. Cl.N=C(N)NCc1ccc(OCCF)c(Br)c1 [Example 8, 3-Bromo-4-(2-fluoroethoxy)benzylguanidinium Chloride]  5.65 µM
6. Cl.N=C1NCC(c2ccc(OCCF)cc2)N1 (centres unmarked) [Example 4, 4-(4-(2-Fluoroethoxy)phenyl)imidazolidin-2-iminium Chloride]  7.27 µM
7. Fc1ccc(CNc2ncc[nH]2)cc1C(F)(F)F [Example 1, N-(4-Fluoro-3-(trifluoromethyl)benzyl)-1H-imidazol-2-amine]  17.94 µM
8. COc1cc(CNC(=N)N)ccc1F.Cl [Example 7, 3-Methoxy-4-fluorobenzylguanidinium Chloride]  20.71 µM
9. CNC(C)C(O)c1ccc(F)c(O)c1 (centres unmarked) [Example 11, 1-(4-Fluoro-3-hydroxyphenyl)-1-hydroxy-N-methylpropan-2-aminium Trifluoroacetate]  54.85 µM
10. CC(N)C(O)c1cc(O)c(OCCF)c(O)c1.Cl (centres unmarked) [Example 6, 5-(2-Amino-1-hydroxypropyl)-2-(2-fluoroethoxy)benzene-1,3-diol Hydrochloride]  102.8 µM

In the case of `Cl.N=C(N)NCC(O)c1ccc(OCCF)cc1` (centres unmarked) [Example 2, 1-(2-(4-(2-fluoroethoxy)phenyl)-2-hydroxyethyl)guanidinium Chloride], the “NET Affinity” value was <20 µM.
